Values of other authors, collected in patent publication US20020146694A1, “Functionating genomes with cross-species coregulation” (priority 2001, published 2002).

Test system: wild type yeast cells
Settings: 10 micrograms/ml

## C[C@H]1c2cccc(O)c2C(=O)C2=C(O)[C@]3(O)C(=O)C(C(N)=O)=C(O)[C@@H](N(C)C)[C@@H]3[C@@H](O)[C@@H]21 [doxycycline]
  effect on the growth rate: no significant effect
